{"source": "patent US20160271263A1", "about": "(Novo Nordisk A/S, priority 2010, published 2016)", "note": "Numbered stars: 1 amine (or outer) side, 2 acyl side, 3 side chain; on linkers, the order of the positions; unused ones are H or OH. Square brackets hold non-standard residues; d marks the D form. Side chains are listed from the residue outwards. Peptide text beside a SMILES is read from it. * marks the point of attachment. C18 diacid = O=C(O)CCCCCCCCCCCCCCCCC(=O)*; γGlu = O=C(O)[C@H](CCC(=O)[*:2])N[*:1]; AEEA = NCCOCCOCC(=O)O; Aib = CC(C)(N)C(=O)O"}
{"target": "glucagon receptor (Homo sapiens, UniProt P47871)", "sequence (P47871 26-477)": "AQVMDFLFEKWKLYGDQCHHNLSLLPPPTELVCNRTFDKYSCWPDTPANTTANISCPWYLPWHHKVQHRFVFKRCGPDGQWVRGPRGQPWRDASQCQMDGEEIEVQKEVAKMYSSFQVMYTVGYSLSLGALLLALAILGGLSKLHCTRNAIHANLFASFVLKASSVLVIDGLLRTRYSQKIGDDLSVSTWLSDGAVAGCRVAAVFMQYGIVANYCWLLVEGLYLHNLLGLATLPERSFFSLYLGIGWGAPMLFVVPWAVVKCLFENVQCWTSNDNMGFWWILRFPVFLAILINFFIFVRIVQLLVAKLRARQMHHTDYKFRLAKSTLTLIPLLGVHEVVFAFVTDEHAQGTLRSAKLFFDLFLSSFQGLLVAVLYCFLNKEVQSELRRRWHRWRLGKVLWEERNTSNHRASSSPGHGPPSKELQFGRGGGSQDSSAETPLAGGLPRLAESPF", "experiment": "cell-based", "units": {"EC50": "nM"}}
{"compound": "CC(C)C[C@H](NC(=O)[C@H](Cc1ccc(O)cc1)NC(=O)[C@H](CCCCN)NC(=O)[C@H](CO)NC(=O)[C@H](Cc1ccc(O)cc1)NC(=O)[C@H](CC(=O)O)NC(=O)[C@H](CO)NC(=O)[C@@H](NC(=O)[C@H](Cc1ccccc1)NC(=O)[C@@H](NC(=O)CNC(=O)[C@H](CCC(N)=O)NC(=O)[C@H](CO)NC(=O)[C@@H](N)Cc1c[nH]cn1)[C@@H](C)O)[C@@H](C)O)C(=O)N[C@@H](CC(=O)O)C(=O)N[C@@H](CO)C(=O)N[C@@H](CCCCNC(=O)COCCOCCNC(=O)COCCOCCNC(=O)CC[C@H](NC(=O)CCCCCCCCCCCCCCCCC(=O)O)C(=O)O)C(=O)N[C@@H](CCCNC(=N)N)C(=O)N[C@@H](C)C(=O)N[C@@H](CCC(N)=O)C(=O)N[C@@H](CC(=O)O)C(=O)N[C@@H](Cc1ccccc1)C(=O)N[C@H](C(=O)N[C@@H](CCC(N)=O)C(=O)N[C@@H](Cc1c[nH]c2ccccc12)C(=O)N[C@@H](CC(C)C)C(=O)N[C@@H](CC(C)C)C(=O)N[C@@H](CC(N)=O)C(=O)N[C@H](C(=O)O)[C@@H](C)O)C(C)C", "note": "[Example 19]", "EC50": 0.094}
{"compound": "CSCC[C@H](NC(=O)[C@H](CC(C)C)NC(=O)[C@H](Cc1c[nH]c2ccccc12)NC(=O)[C@H](CCC(N)=O)NC(=O)[C@@H](NC(=O)[C@H](Cc1ccccc1)NC(=O)[C@H](CC(=O)O)NC(=O)[C@H](CCCCNC(=O)COCCOCCNC(=O)CC[C@H](NC(=O)CCCCCCCCCCCCCCCCC(=O)O)C(=O)O)NC(=O)[C@H](C)NC(=O)[C@H](CCCNC(=N)N)NC(=O)[C@H](CCCNC(=N)N)NC(=O)[C@H](CO)NC(=O)[C@H](CC(=O)O)NC(=O)[C@H](CC(C)C)NC(=O)[C@H](Cc1ccc(O)cc1)NC(=O)[C@H](CCCCN)NC(=O)[C@H](CO)NC(=O)[C@H](Cc1ccc(O)cc1)NC(=O)[C@H](CC(=O)O)NC(=O)[C@H](CO)NC(=O)[C@@H](NC(=O)[C@H](Cc1ccccc1)NC(=O)[C@@H](NC(=O)CNC(=O)[C@H](CCC(N)=O)NC(=O)[C@@H](CO)NC(=O)[C@@H](N)Cc1c[nH]cn1)[C@@H](C)O)[C@@H](C)O)C(C)C)C(=O)N[C@@H](CC(N)=O)C(=O)N[C@H](C(=O)N[C@@H](CCCCN)C(N)=O)[C@@H](C)O", "note": "[Example 23, N^α-(N^ε24 [2-[2-[2-[[(4S)-5-hydroxy-4-[(18-hydroxy-18-oxo-octadecanoyl)amino]-5-oxo-pentanoyl]amino]ethoxy]ethoxy]acetyl] [D-Ser^e, Lys^20] Glucagonyl) Lysinyl amide]", "EC50": 0.54}
{"compound": "CSCC[C@H](NC(=O)[C@H](CC(C)C)NC(=O)[C@H](Cc1c[nH]c2ccccc12)NC(=O)[C@H](CCC(N)=O)NC(=O)[C@@H](NC(=O)[C@H](Cc1ccccc1)NC(=O)[C@H](CC(=O)O)NC(=O)[C@H](CCCNC(=N)N)NC(=O)[C@H](C)NC(=O)[C@H](CCCNC(=N)N)NC(=O)[C@H](CCC(N)=O)NC(=O)[C@H](CCC(=O)O)NC(=O)[C@H](CC(=O)O)NC(=O)[C@H](CC(C)C)NC(=O)[C@H](Cc1ccc(O)cc1)NC(=O)[C@H](CCCCN)NC(=O)[C@H](CO)NC(=O)[C@H](Cc1ccc(O)cc1)NC(=O)[C@H](CC(=O)O)NC(=O)[C@H](CO)NC(=O)[C@@H](NC(=O)[C@H](Cc1ccccc1)NC(=O)[C@@H](NC(=O)CNC(=O)[C@H](CCC(N)=O)NC(=O)[C@H](CO)NC(=O)[C@@H](N)Cc1c[nH]cn1)[C@@H](C)O)[C@@H](C)O)C(C)C)C(=O)N[C@@H](CC(N)=O)C(=O)N[C@H](C(=O)N[C@@H](CCCCNC(=O)COCCOCCNC(=O)COCCOCCNC(=O)CC[C@H](NC(=O)CCCCCCCCCCCCCCCCC(=O)O)C(=O)O)C(N)=O)[C@@H](C)O", "note": "[Example 26, N^α ([Glu^16,Gln^17,Arg^20] Glucagonyl) N^ε-([2-[2-[2-[[2-[2-[2-[[(4S)-5-hydroxy-4-[(18-hydroxy-18-oxooctadecanoyl)amino]-5-oxopentanoyl]amino]ethoxy]ethoxy]acetyl]amino]ethoxy]ethoxy]acetyl]) Lysinyl amide] (H-HSQGTFTSDYSKYLDEQRARDFVQWLMNTK([AEEA-AEEA-γGlu-C18 diacid])-NH2; N-terminus assumed)", "EC50": 0.192}
{"compound": "CSCC[C@H](NC(=O)[C@H](CC(C)C)NC(=O)[C@H](Cc1c[nH]c2ccccc12)NC(=O)[C@H](CCC(N)=O)NC(=O)[C@@H](NC(=O)[C@H](Cc1ccccc1)NC(=O)[C@H](CC(=O)O)NC(=O)[C@H](CCCNC(=N)N)NC(=O)[C@H](C)NC(=O)[C@H](C)NC(=O)[C@H](CCC(N)=O)NC(=O)[C@H](CCC(=O)O)NC(=O)[C@H](CC(=O)O)NC(=O)[C@H](CC(C)C)NC(=O)[C@H](Cc1ccc(O)cc1)NC(=O)[C@H](CCCCN)NC(=O)[C@H](CO)NC(=O)[C@H](Cc1ccc(O)cc1)NC(=O)[C@H](CC(=O)O)NC(=O)[C@H](CO)NC(=O)[C@@H](NC(=O)[C@H](Cc1ccccc1)NC(=O)[C@@H](NC(=O)CNC(=O)[C@H](CCC(N)=O)NC(=O)[C@H](CO)NC(=O)[C@@H](N)Cc1c[nH]cn1)[C@@H](C)O)[C@@H](C)O)C(C)C)C(=O)N[C@@H](CC(N)=O)C(=O)N[C@H](C(=O)N[C@@H](CCCCNC(=O)COCCOCCNC(=O)COCCOCCNC(=O)CC[C@H](NC(=O)CCCCCCCCCCCCCCCCC(=O)O)C(=O)O)C(N)=O)[C@@H](C)O", "note": "[Example 27, N^α ([Glu^16,Gln^17,Ala^18,Arg^20]Glucagonyl) N^ε-([2-[2-[2-[[2-[2-[2-[[(4S)-5-hydroxy-4-[(18-hydroxy-18-oxooctadecanoyl)amino]-5-oxopentanoyl]amino]ethoxy]ethoxy]acetyl]amino]ethoxy]ethoxy]acetyl]) Lysinyl amide] (H-HSQGTFTSDYSKYLDEQAARDFVQWLMNTK([AEEA-AEEA-γGlu-C18 diacid])-NH2; N-terminus assumed)", "EC50": 0.406}
{"compound": "CC(C)C[C@H](NC(=O)[C@H](Cc1ccc(O)cc1)NC(=O)[C@H](CCCCN)NC(=O)[C@H](CO)NC(=O)[C@H](Cc1ccc(O)cc1)NC(=O)[C@H](CC(=O)O)NC(=O)[C@H](CO)NC(=O)[C@@H](NC(=O)[C@H](Cc1ccccc1)NC(=O)[C@@H](NC(=O)CNC(=O)[C@H](CCC(N)=O)NC(=O)C(C)(C)NC(=O)[C@@H](N)Cc1c[nH]cn1)[C@@H](C)O)[C@@H](C)O)C(=O)N[C@@H](CC(=O)O)C(=O)N[C@@H](CCC(=O)O)C(=O)N[C@@H](CCCNC(=N)N)C(=O)N[C@@H](CCCNC(=N)N)C(=O)N[C@@H](C)C(=O)N[C@@H](CCC(N)=O)C(=O)N[C@@H](CC(=O)O)C(=O)N[C@@H](Cc1ccccc1)C(=O)N[C@H](C(=O)N[C@@H](CCCCNC(=O)COCCOCCNC(=O)COCCOCCNC(=O)CC[C@H](NC(=O)CCCCCCCCCCCCCCCCC(=O)O)C(=O)O)C(=O)N[C@@H](Cc1c[nH]c2ccccc12)C(=O)N[C@@H](CC(C)C)C(=O)N[C@@H](CC(C)C)C(=O)N[C@@H](CC(N)=O)C(=O)N[C@H](C(N)=O)[C@@H](C)O)C(C)C", "note": "[Example 29, N^ε24-([2-[2-[2-[[2-[2-[2-[[(4S)-5-hydroxy-4-[(18-hydroxy-18-oxooctadecanoyl)amino]-5-oxopentanoyl]amino]ethoxy]ethoxy]acetyl]amino]ethoxy]ethoxy]acetyl]) [Aib^2,Glu^16,Lys^24,Leu^27]Glucagon peptide amide] (H-H[Aib]QGTFTSDYSKYLDERRAQDFVK([AEEA-AEEA-γGlu-C18 diacid])WLLNT-NH2; N-terminus assumed)", "EC50": 0.135}
{"compound": "CC(C)C[C@H](NC(=O)[C@H](Cc1ccc(O)cc1)NC(=O)[C@H](CCCCN)NC(=O)[C@H](CO)NC(=O)[C@H](Cc1ccc(O)cc1)NC(=O)[C@H](CC(=O)O)NC(=O)[C@H](CO)NC(=O)[C@@H](NC(=O)[C@H](Cc1ccccc1)NC(=O)[C@@H](NC(=O)CNC(=O)[C@H](CCC(N)=O)NC(=O)[C@@H](CO)NC(=O)[C@@H](N)Cc1c[nH]cn1)[C@@H](C)O)[C@@H](C)O)C(=O)N[C@@H](CC(=O)O)C(=O)N[C@@H](CCC(=O)O)C(=O)N[C@@H](CCC(N)=O)C(=O)N[C@@H](C)C(=O)N[C@@H](C)C(=O)N[C@@H](CCCNC(=N)N)C(=O)N[C@@H](CC(=O)O)C(=O)N[C@@H](Cc1ccccc1)C(=O)N[C@H](C(=O)N[C@@H](CCCCNC(=O)COCCOCCNC(=O)COCCOCCNC(=O)CC[C@H](NC(=O)CCCCCCCCCCCCCCCCC(=O)O)C(=O)O)C(=O)N[C@@H](Cc1c[nH]c2ccccc12)C(=O)N[C@@H](CC(C)C)C(=O)N[C@@H](CC(C)C)C(=O)N[C@@H](CC(N)=O)C(=O)N[C@H](C(N)=O)[C@@H](C)O)C(C)C", "note": "[Example 30, N^ε24-([2-[2-[2-[[2-[2-[2-[[(4S)-5-hydroxy-4-[(18-hydroxy-18-oxooctadecanoyl)amino]-5-oxopentanoyl]amino]ethoxy]ethoxy]acetyl]amino]ethoxy]ethoxy]acetyl]) [D-Ser^2,Glu^16,Gln^17,Ala^18,Arg^20,Lys^24,Leu^27] Glucagon peptide amide] (H-H[dS]QGTFTSDYSKYLDEQAARDFVK([AEEA-AEEA-γGlu-C18 diacid])WLLNT-NH2; N-terminus assumed)", "EC50": 0.137}
{"compound": "CC(C)C[C@H](NC(=O)[C@H](Cc1ccc(O)cc1)NC(=O)[C@H](CCCCN)NC(=O)[C@H](CO)NC(=O)[C@H](Cc1ccc(O)cc1)NC(=O)[C@H](CC(=O)O)NC(=O)[C@H](CO)NC(=O)[C@@H](NC(=O)[C@H](Cc1ccccc1)NC(=O)[C@@H](NC(=O)CNC(=O)[C@H](CCC(N)=O)NC(=O)[C@H](CO)NC(=O)[C@@H](N)Cc1c[nH]cn1)[C@@H](C)O)[C@@H](C)O)C(=O)N[C@@H](CC(=O)O)C(=O)N[C@@H](CO)C(=O)N[C@@H](CCCNC(=N)N)C(=O)N[C@@H](CCCNC(=N)N)C(=O)N[C@@H](C)C(=O)N[C@@H](CCC(N)=O)C(=O)N[C@@H](CCC(=O)O)C(=O)N[C@@H](Cc1ccccc1)C(=O)N[C@H](C(=O)N[C@@H](CCCCNC(=O)COCCOCCNC(=O)COCCOCCNC(=O)CC[C@H](NC(=O)CCCCCCCCCCCCCCCCC(=O)O)C(=O)O)C(=O)N[C@@H](CCCNC(=N)N)C(=O)N[C@@H](CC(C)C)C(=O)N[C@@H](CC(C)C)C(=O)N[C@@H](CC(N)=O)C(=O)N[C@H](C(N)=O)[C@@H](C)O)C(C)C", "note": "[Example 31, N^ε24-([2-[2-[2-[[2-[2-[2-[[(4S)-5-hydroxy-4-[(18-hydroxy-18-oxooctadecanoyl)amino]-5-oxopentanoyl]amino]ethoxy]ethoxy]acetyl]amino]ethoxy]ethoxy]acetyl])[Glu^21, Lys^24, Arg25 Leu^27,]Glucagon peptide amide]", "EC50": 0.043}
